Three molecules from BindingDB's records for PubMed 7562491 (Zeneca Pharmaceuticals, 1995) can be followed below.

Usually Ki stands for the dissociation constant of the complex between target and ligand, obtained from inhibition or displacement. Low readings indicate higher affinity, high ones lower affinity.

Assay [1] deals with T1, Substance-K receptor (Homo sapiens, UniProt P21452).
T1 sequence (P21452 whole entry): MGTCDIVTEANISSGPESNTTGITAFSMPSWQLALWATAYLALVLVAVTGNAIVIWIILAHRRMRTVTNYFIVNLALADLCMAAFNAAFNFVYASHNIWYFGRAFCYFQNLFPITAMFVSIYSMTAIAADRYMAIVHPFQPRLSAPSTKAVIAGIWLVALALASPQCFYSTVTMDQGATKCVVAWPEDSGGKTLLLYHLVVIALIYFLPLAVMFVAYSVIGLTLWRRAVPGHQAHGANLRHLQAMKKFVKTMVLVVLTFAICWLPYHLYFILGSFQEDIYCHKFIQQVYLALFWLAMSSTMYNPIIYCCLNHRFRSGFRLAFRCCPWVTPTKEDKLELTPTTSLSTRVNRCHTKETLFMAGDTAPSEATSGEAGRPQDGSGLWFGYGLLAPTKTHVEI

The target of assay [2] is T2, Substance-K receptor (Mesocricetus auratus, UniProt P51144).
T2 sequence (P51144 whole entry): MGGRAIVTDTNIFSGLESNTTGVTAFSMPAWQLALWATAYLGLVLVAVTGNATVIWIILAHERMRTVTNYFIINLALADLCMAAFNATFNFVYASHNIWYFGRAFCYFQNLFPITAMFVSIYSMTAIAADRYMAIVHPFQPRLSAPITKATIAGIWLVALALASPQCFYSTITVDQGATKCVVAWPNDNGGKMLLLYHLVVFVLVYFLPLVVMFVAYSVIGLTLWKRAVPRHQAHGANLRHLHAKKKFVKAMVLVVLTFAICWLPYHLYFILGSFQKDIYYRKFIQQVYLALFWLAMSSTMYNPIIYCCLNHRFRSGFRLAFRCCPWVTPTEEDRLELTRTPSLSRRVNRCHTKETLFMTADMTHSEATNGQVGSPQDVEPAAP

Assay [3] has as its target Substance-P receptor (Cavia porcellus, UniProt P30547).

Several values for one entry are separate records, joined by “and”; a condition that tells them apart may be missing. Identical values can stand only once.

Chain of Substance-P receptor (P30547 whole entry): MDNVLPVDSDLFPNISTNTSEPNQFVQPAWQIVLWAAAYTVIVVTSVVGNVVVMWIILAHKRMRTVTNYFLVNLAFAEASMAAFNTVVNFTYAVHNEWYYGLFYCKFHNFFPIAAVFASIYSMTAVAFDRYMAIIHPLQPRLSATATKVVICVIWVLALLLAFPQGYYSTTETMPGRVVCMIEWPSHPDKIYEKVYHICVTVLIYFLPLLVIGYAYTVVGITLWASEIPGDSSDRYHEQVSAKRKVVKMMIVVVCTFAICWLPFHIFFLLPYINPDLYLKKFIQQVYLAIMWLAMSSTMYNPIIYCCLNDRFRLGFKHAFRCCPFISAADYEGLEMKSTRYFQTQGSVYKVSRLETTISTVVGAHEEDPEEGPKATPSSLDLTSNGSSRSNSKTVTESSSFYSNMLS

With `O=C1c2nc(N3CCOCC3)nc(Nc3ccc(Cl)cc3)c2CN1CCN1CCOCC1` [COMPOUND II], the inhibition constant (Ki) in assay [1] is 187 nM; in assay [2] it was 41 nM and 39 nM.

In the case of `CC(N=O)C(=O)N1CCN(c2nc(Nc3ccc(Cl)cc3)c3c(n2)C(=O)N(C(C)C)C3)CC1` (configuration not stated) [ZM253,270], the Ki in assay [1] was 105 nM; in assay [3], 9770 nM; in assay [2], 2.2 nM and 2 nM.

Regarding `CC(C)N1Cc2c(Nc3ccc(Cl)cc3)nc(N3CCN(C(=O)Cc4[nH]c(=O)[nH]c4O)CC3)nc2C1=O` [COMPOUND I], the inhibitory constant (Ki) in assay [1] is 188 nM; in assay [2], 18 nM and 17 nM.
